Test results: article PMC8765781, “A platform of assays for the discovery of anti-Zika small-molecules with activity in a 3D-bioprinted outer-blood-retina model” (PLoS ONE, 2022)
Where two headings read alike, the source gives them in different places. *1 amine or outer side, *2 acyl side, *3 side chain or, on linkers, in order; H or OH if unused. Where a SMILES comes first, the peptide text is derived from it. Bridges are numbered along the chain shown (N, C = ends). [ ]: non-standard residue; d: D form. The star is where a group is joined. pTerphenylCO(4''-OnC5H11) = CCCCCOc1ccc(-c2ccc(-c3ccc(C(=O)*)cc3)cc2)cc1; Orn(4R-OH,5R-OH) = O=C([C@H](C[C@@H](O)[C@@H](O)N[*:3])N[*:1])[*:2]; hTyr(3S-OH,4S-OH) = N[C@H](C(=O)O)[C@H](O)[C@@H](O)c1ccc(O)cc1; Pro(3S-OH,4S-Me) = C[C@H]1CN[C@H](C(=O)O)[C@H]1O; Hyp = O=C(O)[C@@H]1C[C@@H](O)CN1

Tested on: wild-type ZIKV (Ugandan MR766 strain) in Vero cells
Experiment: ZIKV cytopathic effect (CPE) inhibition qHTS assay, CellTiter-Glo readout
Format: cell-based, Zika virus
Details: for Emax: read-out: Max response
[1] = Zika virus, Vero, read-out: Log AC50 (M) (converted)
[2] = Zika virus, Vero, from Hill fit of the response curve, 50% of maximum activity response, 194 cherry-picked compounds, protocol name not given, read-out: AC50
[3] = Zika virus, Vero, potency in log units (Molar) from Hill fit of the response curve, 194 cherry-picked compounds, protocol name not given, read-out: Log AC50 (converted)
[4] = difference between neutral response and maximum compound response
[5] = Zika virus, Vero, read-out: Log AC50 (converted)

| Compound | Efficacy | AC50 (Zika virus, Vero) [M] | AC50 [1] [M] | CC-v2 (curve class classification of the dose response curve) | other results |
| --- | --- | --- | --- | --- | --- |
| C[C@@H]1O[C@@H](O[C@H]2[C@H](O[C@H]3CC[C@@]4(C)C(CC[C@]5(C)C4C=C[C@]46OC[C@@]7(CCC(C)(C)C[C@H]74)[C@@H](O[C@@H]4O[C@@H](C)[C@H](O)[C@@H](O)[C@H]4O)C[C@]65C)[C@]3(C)CO)O[C@H](CO)[C@@H](O)[C@@H]2O[C@@H]2O[C@H](CO)[C@@H](O)[C@H](O)[C@H]2O)[C@H](O)[C@H](O)[C@H]1O (some centres unmarked) [NCGC00384707-01] | -27.107 | 6.18e-06 | 6.18e-06 | – | – |
| CC1=CC(=O)[C@@H](O)[C@]2(C)C3[C@@H](O)[C@@H]4OC(=O)[C@@H]([C@H]4C)[C@]3(C)C(=O)[C@H](O)[C@@H]12 (some centres unmarked) [NCGC00384766-01] | – | – | – | – | AC50 [2]: 9.04e-06 M; AC50 [3]: 9.04e-06 M; Efficacy [4]: -50.694 |
| COc1ccc(CC2C(=O)NC(C)C(=O)N(C)C3Cc4ccc(cc4)Oc4cc(ccc4OC4OC(CO)C(O)C(O)C4O)CC(C(=O)NC(C)C(=O)NC(C)C(=O)N2C)N(C)C3=O)cc1 (centres unmarked) [NCGC00384826-01] | – | – | – | – | AC50 [2]: 6.18e-06 M; AC50 [3]: 6.18e-06 M; CC-v2 (curve class classification of the dose response curve) (curve class v2 (Inglese et al. 2006)): -2.2; Efficacy [4]: -63.548 |
| CC(/C=C/C=C(\C)C(=O)O[C@@H]1O[C@H](CO[C@@H]2O[C@H](CO)[C@@H](O)[C@H](O)[C@H]2O)[C@@H](O)[C@H](O)[C@H]1O)=C\C=C\C=C(C)\C=C\C=C(/C)C(=O)O[C@@H]1C[C@](O)(C(=O)O)C[C@@H](O)[C@H]1OC(=O)/C=C/c1ccc(O)c(O)c1 [NCGC00384868-01] | -78.383 | 6.93e-06 | 6.93e-06 | -3 | – |
| C[C@@H]1C[C@@H]([C@@H](O)C(C)(C)O)O[C@H]2C[C@@]3(C)C(=C12)C[C@H](O)[C@H]1[C@@]2(C)CCC(=O)C(C)(C)C2CC[C@@]13C (some centres unmarked) [NCGC00384870-01] | -67.591 | 1.59e-05 | 1.59e-05 | -3 | – |
| C=C[C@H]1[C@H](O[C@@H]2O[C@H](CO)[C@@H](O)[C@H](O)[C@H]2O)OC=C(C(=O)OC)[C@H]1CCO [NCGC00384878-01] | -80.569 | 2.02e-05 | 2.02e-05 | -3 | – |
| CC(=O)OC[C@]12C[C@H](OC(=O)CC(C)C)C(C)=C[C@H]1O[C@@H]1[C@H](O)C[C@@]2(C)[C@]12CO2 [NCGC00385002-01] | -46.392 | – | – | – | Log AC50 (M): -5.6492 M; Max Resp: -19.758; AC50 (read-out: AC50): 2.24e-06 M |
| CC(=O)O[C@H]1CC2C(COC(=O)CC(C)C)=CO[C@@H](OC(=O)CC(C)C)C2[C@]12CO2 (some centres unmarked) [NCGC00385012-01] | -34.82 | 3.17e-05 | 3.17e-05 | -3 | – |
| C/C=C/c1ccc2oc(-c3ccc(O)c(OC)c3)c(C)c2c1 [NCGC00385078-01] | -53.705 | 2.31e-05 | 2.31e-05 | -3 | – |
| CC(=O)OC12C(O)C(C)C3(O)C4C=C(C)C(=O)C4CC(CO)=CC3C1C2(C)C (centres unmarked) [NCGC00385123-01] | -66.621 | 1.12e-05 | 1.12e-05 | -3 | – |
| COC(=O)[C@@]1(C)C(=O)C=C[C@]2(C)c3c(O)cc(C(C)C)cc3[C@H](O)[C@@H](OC(C)=O)C12 (some centres unmarked) [NCGC00385132-01] | -68.661 | 1.42e-05 | 1.42e-05 | -3 | – |
| CC1CCC2(C(=O)OC3OC(CO)C(O)C(O)C3O)CCC3(C)C(=CCC4C5(C)CCC(O)C(C)(CO)C5CCC43C)C2C1(C)O (centres unmarked) [NCGC00385137-01] | -66.194 | 6.11e-06 | 6.11e-06 | -3 | – |
| CC(C)c1c(O)ccc2c1CC[C@H]1C(C)(C)CCC[C@]21C [NCGC00385162-01] | -41.688 | 5.8e-05 | – | – | Curve class: -3; AC50 [5]: 5.8e-05 M; Emax (Zika virus, Vero): -36.8% |
| C=C(C(=O)O[C@H]1C/C(C)=C/CC/C(CO)=C/[C@H]2OC(=O)C(=C)[C@H]12)C(O)CO (some centres unmarked) [NCGC00385206-01] | -104.223 | 4.53e-05 | 4.53e-05 | -3 | – |
| COc1ccc(CC2C(=O)NC(C)C(=O)N(C)C3Cc4ccc(cc4)Oc4cc(ccc4OC4OC(CO)C(O)C(O)C4O)CC(C(=O)NC(C)C(=O)NC(CCC(=O)O)C(=O)N2C)N(C)C3=O)cc1 (centres unmarked) [NCGC00385295-01] | -76.149 | 4.91e-06 | 4.91e-06 | -2.2 | – |
| COc1cc2c(cc1O)C1(Cc3ccc4c(c3C1O)OCO4)[N+](C)([O-])CC2 (centres unmarked) [NCGC00385471-01] | -50.391 | 6.4e-07 | 6.4e-07 | – | – |
| C=C1C(=O)O[C@H]2CC(=C)[C@H]3CC[C@@](C)(O)[C@@H]3CC12 (some centres unmarked) [NCGC00385616-01] | -31.171 | 7.31e-05 | 7.31e-05 | -3 | – |
| C[C@H]1CC[C@@]2(OC1)O[C@H]1CC3[C@@H]4CC[C@@H]5C[C@@H](O[C@@H]6O[C@H](CO)[C@@H](O[C@@H]7O[C@H](CO[C@@H]8OC[C@@H](O)[C@H](O)[C@H]8O)[C@@H](O[C@@H]8O[C@H](CO)[C@H](O)[C@H](O)[C@H]8O)[C@H](O)[C@H]7O)[C@H](O)[C@H]6O)CC[C@]5(C)C4CC[C@]3(C)[C@H]1[C@@H]2C (some centres unmarked) [NCGC00385658-01] | – | – | – | – | AC50 [2]: 3.48e-06 M; AC50 [3]: 3.48e-06 M; Efficacy [4]: -25.029 |
| C=C1C(=O)O[C@@H]2/C=C(\CO)CC/C=C(/C=O)C[C@H](O)[C@@H]12 [NCGC00385803-01] | -41.449 | 6.51e-05 | – | – | Curve class: -3; AC50 [5]: 6.51e-05 M; Emax (Zika virus, Vero): -37.5% |
| C/C=C(/C)C(=O)OC1CC(C)(C)CC2C3=CCC4C5(C)CCC(O[C@@H]6O[C@H](C(=O)O)[C@@H](O)[C@H](O)[C@H]6O[C@@H]6O[C@H](CO)[C@H](O)[C@H](O[C@@H]7OC[C@H](O)[C@H](O)[C@H]7O[C@@H]7O[C@H](CO)[C@@H](O)[C@H](O)[C@H]7O)[C@H]6O)C(C)(C)C5CCC4(C)C3(C)C(O)C(O)C12CO (some centres unmarked) [NCGC00386019-01] | -41.4 | 9.77e-06 | 9.77e-06 | – | – |
| CC(C)=CCC/C(C)=C/COCC1OC(n2ccc(=O)[nH]c2=O)C(O)C1O (centres unmarked) [NCGC00386057-01] | -46.076 | 4.53e-05 | 4.53e-05 | – | – |
| CC1CCC2C(C)(C)C(O)CCC2(C)C12Cc1c(O)cc3c(c1O2)CNC3=N (centres unmarked) [NCGC00386084-01] | -59.279 | 5.08e-07 | 5.08e-07 | – | – |
| COc1cccc(C)c1C(=O)O[C@@H]1C[C@H](O[C@H]2[C@H](O)C[C@H](O[C@@H]3CCC[C@H]4[C@H]3C=C[C@@H]3CCCC/C=C/[C@H]5C=C(C(=O)O)[C@@H](C)C[C@@]56OC(=O)C(=C6O)OC(=O)[C@@]34C)O[C@@H]2C)O[C@H](C)[C@H]1O [NCGC00386109-01] | -37.18 | 1.23e-05 | 1.23e-05 | – | – |
| C=C1/C(=C/C=C2\CCC[C@]3(C)[C@@H]([C@H](C)/C=C/[C@@H](C)C(C)C)CC[C@@H]23)C[C@@H](O)C[C@@H]1O [NCGC00386145-01] | -42.433 | 6.51e-05 | 6.51e-05 | -3 | – |
| C=CC(C)(O)CC[C@@H]1[C@@]2(C)CCCC(C)(C)C2CC[C@@]1(C)O (some centres unmarked) [NCGC00386171-01] | -26.101 | 5.8e-05 | 5.8e-05 | – | – |
| C=CC(=O)Nc1ccc2ncnc(Nc3cccc(Br)c3)c2c1 [NCGC00386260-02] | -35.975 | 7.31e-05 | – | – | Curve class: -3; AC50 [5]: > 4.6e-05 M; Emax (Zika virus, Vero): -31.6% |
| Cc1cc(C)c(-c2csc(NC(=O)c3ccccc3)n2)c(C)c1 [NCGC00386342-01] | -75.252 | 2.31e-05 | – | – | Curve class: -3; AC50 [5]: 2.31e-05 M; Emax (Zika virus, Vero): 8.19% |
| CCCCCOc1ccc(-c2ccc(-c3ccc(C(=O)N[C@H]4C[C@@H](O)[C@@H](O)NC(=O)[C@@H]5[C@@H](O)[C@@H](C)CN5C(=O)[C@H]([C@@H](C)O)NC(=O)[C@H]([C@H](O)[C@@H](O)c5ccc(O)cc5)NC(=O)[C@@H]5C[C@@H](O)CN5C(=O)[C@H]([C@@H](C)O)NC4=O)cc3)cc2)cc1 [NCGC00386349-01] ({pTerphenylCO(4''-OnC5H11)}-[Orn(4R-OH,5R-OH)]T[Hyp][hTyr(3S-OH,4S-OH)]T[Pro(3S-OH,4S-Me)]; lactam 1-C) | -31.74 | 1.26e-05 | 1.26e-05 | -2.2 | – |
